The text below walks through data of patent US10344039B2, “Macrocyclic spirocarbamate derivatives as factor XIa inhibitors, pharmaceutically acceptable compositions and their use” (MERCK SHARP & DOHME CORP., priority 2015, dated 2019).

Experiment [1] deals with T1, purified human Factor XIa (Homo sapiens, UniProt P03951).
T1 construct: purified human Factor XIa; purchased Sekisui Diagnostics
Briefly: Factor XIa Assay. The format is biochemical. Conditions: purified human Factor XIa 40 pM; substrate Z-Gly-Pro-Arg-AFC 100 μM; 50 mM HEPES pH 7.4; read-out: Hu FXIa Ki. A digest of the protocol: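 Purified human FXIa at 40 pM, in 50 mM HEPES pH 7.4 with 150 mM NaCl, 5 mM CaCl2 and 0.1% PEG 8000, was preequilibrated with inhibitor. Initial hydrolysis rates of Z-Gly-Pro-Arg-AFC were then measured at room temperature or 37 °C. Ki was derived from Vo/Vi = 1 + [I]/Ki, assuming competitive inhibition.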

In experiment [2] the target is T2, purified Human plasma kallikrein (Homo sapiens, UniProt P03952).
T2 construct: yields a heavy chain (371 amino acids) and a light chain (248 amino acids); purchased Enzyme Research Laboratories
Briefly: Kallikrein Assay. Particulars: purified Human plasma kallikrein 0.5 nM; substrate Acetyl-K-P-R-AFC; 50 mM HEPES pH 7.4; Ki from IC50 by Cheng Prusoff equation; read-out: Hu P. Kallikrein. The format is biochemical. Here is the method:
The effectiveness of a compound of the present invention as an inhibitor of Kallikrein can be determined using a relevant purified serine protease, and an appropriate synthetic substrate. The rate of hydrolysis of the chromogenic or fluorogenic substrate by the relevant serine protease was measured both in the absence and presence of compounds of the present invention. Assays were conducted at room temperature or at 37° C. […] A decrease in the rate of fluorescence change in the presence of inhibitor is indicative of enzyme inhibition. Such methods are known to one skilled in the art. The results of this assay are expressed as the inhibitory constant, Ki. Kallikrein determinations were made in 50 mM HEPES buffer at pH 7.4 containing 150 mM NaCl, 5 mM CaCl2, and 0.1% PEG 8000 (polyethylene glycol; Fisher Scientific). Determinations were made using purified Human plasma kallikrein at a final concentration of 0.5 nM (Enzyme Research Laboratories) and the synthetic substrate, Acetyl-K—P-R-AFC (Sigma # C6608) at a concentration of […]. Activity assays were performed by diluting a stock solution of substrate at least tenfold to a final concentration ≤0.2 Km into a solution containing enzyme or enzyme equilibrated with inhibitor. Times required to achieve equilibration between enzyme and inhibitor were determined in control experiments. The reactions were performed under linear progress curve conditions and fluorescence increase measured at 405 Ex/510 Em nm. Values were converted to percent inhibition of the control reaction (after subtracting 100% Inhibition value). IC50 was determined by inflection point from a four parameter logistic curve fit. Ki was calculated using the Cheng Prusoff equation, Ki=IC50/(1+([S]/Km)). The activities shown by this assay indicate that the compounds of the invention may be therapeutically useful for treating or preventing various cardiovascular and/or cerebrovascular thromboembolic conditions in patients suffering from unstable angina, acute coronary syndrome, refractory angina, myocardial infarction, transient ischemic attacks, atrial fibrillation, stroke such as thrombotic stroke or embolic stroke, venous thrombosis, coronary and cerebral arterial thrombosis, cerebral and pulmonary embolism, atherosclerosis, deep vein thrombosis, disseminated intravascular coagulation, and reocclusion or restenosis of recanalized vessels.

Molecules are shown by their SMILES.

T2 sequence (P03952 391-638 limits assumed): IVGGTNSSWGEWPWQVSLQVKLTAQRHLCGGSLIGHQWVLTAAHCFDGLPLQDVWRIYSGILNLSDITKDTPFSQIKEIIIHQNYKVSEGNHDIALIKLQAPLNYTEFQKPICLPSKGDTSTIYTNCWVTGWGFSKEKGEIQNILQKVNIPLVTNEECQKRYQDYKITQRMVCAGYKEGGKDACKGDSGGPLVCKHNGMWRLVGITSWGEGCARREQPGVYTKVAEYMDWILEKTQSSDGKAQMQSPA
T2 sequence (P03952 20-390 partner limits assumed): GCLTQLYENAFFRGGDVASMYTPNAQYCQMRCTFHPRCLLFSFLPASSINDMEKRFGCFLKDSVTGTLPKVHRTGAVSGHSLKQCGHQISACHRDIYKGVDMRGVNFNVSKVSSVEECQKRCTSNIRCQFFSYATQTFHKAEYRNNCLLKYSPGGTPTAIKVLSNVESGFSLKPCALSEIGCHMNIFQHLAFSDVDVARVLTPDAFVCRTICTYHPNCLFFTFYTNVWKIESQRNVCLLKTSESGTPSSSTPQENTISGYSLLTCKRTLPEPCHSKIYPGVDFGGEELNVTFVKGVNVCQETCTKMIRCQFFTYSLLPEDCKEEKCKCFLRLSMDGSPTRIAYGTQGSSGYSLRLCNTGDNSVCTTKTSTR
T1 sequence (P03951 388-625 limits assumed): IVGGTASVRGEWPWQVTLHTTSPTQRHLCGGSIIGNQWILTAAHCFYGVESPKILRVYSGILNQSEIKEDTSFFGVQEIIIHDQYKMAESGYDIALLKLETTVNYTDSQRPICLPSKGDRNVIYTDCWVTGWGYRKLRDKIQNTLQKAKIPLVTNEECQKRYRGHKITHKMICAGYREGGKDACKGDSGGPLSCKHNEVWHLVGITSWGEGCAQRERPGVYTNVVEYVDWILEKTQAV
T1 sequence (P03951 19-387 partner limits assumed): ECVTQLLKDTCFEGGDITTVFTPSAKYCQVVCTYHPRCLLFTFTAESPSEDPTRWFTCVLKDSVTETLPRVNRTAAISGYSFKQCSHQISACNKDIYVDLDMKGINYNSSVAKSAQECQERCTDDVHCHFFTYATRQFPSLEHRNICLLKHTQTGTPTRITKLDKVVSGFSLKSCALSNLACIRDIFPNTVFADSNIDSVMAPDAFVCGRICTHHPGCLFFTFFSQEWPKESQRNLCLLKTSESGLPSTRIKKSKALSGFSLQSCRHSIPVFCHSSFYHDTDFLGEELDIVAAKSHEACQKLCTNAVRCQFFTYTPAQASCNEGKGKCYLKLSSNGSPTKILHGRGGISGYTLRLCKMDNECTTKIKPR

With `COC(=O)Nc1ccc2c(c1)NC(=O)CCCC[C@@H](C(=O)N1CCC[C@@]3(C1)OC(=O)Nc1ccc(Cl)cc13)c1nc-2c(Cl)[nH]1` [Example 7a, methyl ((R,Z)-1^5-chloro-9-((R)-6-chloro-2-oxo-1,2-dihydrospiro[benzo[d][1,3]oxazine-4,3′-piperidine]-1′-carbonyl)-4-oxo-11H-3-aza-1(4,2)-imidazola-2(1,2)-benzenacyclononaphane-2^4-yl)carbamate], the Ki in experiment [1] worked out at 0.42 nM; in experiment [2], 0.39 nM.

For the molecule `COC(=O)Nc1ccc2c(c1)NC(=O)[C@H](C)CCCC(C(=O)N1CCC[C@@]3(C1)OC(=O)Nc1ccc(Cl)c(F)c13)c1nc-2c(Cl)[nH]1` (stereo partly drawn) [Example 10, methyl ((5R,Z)-1^5-chloro-9-((R)-6-chloro-5-fluoro-2-oxo-1,2-dihydrospiro[benzo[d][1,3]oxazine-4,3′-piperidine]-1′-carbonyl)-5-methyl-4-oxo-1^1H-3-aza-1(4,2)-imidazola-2(1,2)-benzenacyclononaphane-2^4-yl)carbamate], the Ki in experiment [1] came to 0.67 nM; in experiment [2], 0.96 nM.

Take `COC(=O)Nc1ccc2c(c1)NC(=O)CCCC[C@@H](C(=O)N1CC[C@@]3(C1)OC(=O)Nc1ccc(Cl)c(F)c13)c1nc-2c(C)[nH]1` [Example 13b, methyl ((R,Z)-9-((R)-6-chloro-5-fluoro-2-oxo-1,2-dihydrospiro[benzo[d][1,3]oxazine-4,3′-pyrrolidine]-1′-carbonyl)-1^5-methyl-4-oxo-1^1H-3-aza-1(4,2)-imidazola-2(1,2)-benzenacyclononaphane-2^4-yl)carbamate]: the values for the Ki in experiment [1] and in experiment [2] were 0.6 nM and 1.11 nM, respectively.

In the case of `COC(=O)Nc1ccc2c(c1)NC(=O)[C@H](C)CCC[C@@H](C(=O)N1CCC[C@@]3(C1)OC(=O)Nc1ccc(Cl)c(F)c13)C1=NC=C2O1` [Example 14a, methyl ((5R,9R)-9-((R)-6-chloro-5-fluoro-2-oxo-1,2-dihydrospiro[benzo[d][1,3]oxazine-4,3′-piperidine]-1′-carbonyl)-5-methyl-4-oxo-3-aza-1(5,2)-oxazola-2(1,2)-benzenacyclononaphane-2^4-yl)carbamate], the Ki was 13.4 nM in experiment [1] and 5.5 nM in experiment [2].

On to `COC(=O)Nc1ccc2c(c1)NC(=O)CCCC[C@@H](C(=O)N1CC[C@@]3(C1)OC(=O)Nc1ccc(Cl)cc13)c1cc-2ccn1` [Example 17a, methyl ((R)-9-((R)-6-chloro-2-oxo-1,2-dihydrospiro[benzo[d][1,3]oxazine-4,3′-pyrrolidine]-1′-carbonyl)-4-oxo-3-aza-1(4,2)-pyridina-2(1,2)-benzenacyclononaphane-2^4-yl)carbamate], for which the Ki is 9.2 nM in experiment [1] and 3.8 nM in experiment [2].

As for `COC(=O)Nc1ccc2c(c1)NC(=O)CCCCC[C@@H](C(=O)N1CC[C@@]3(C1)OC(=O)Nc1ccc(Cl)c(F)c13)c1cc-2ccn1` [Example 18a, methyl ((R)-10-((R)-6-chloro-5-fluoro-2-oxo-1,2-dihydrospiro[benzo[d][1,3]oxazine-4,3′-pyrrolidine]-1′-carbonyl)-4-oxo-3-aza-1(4,2)-pyridina-2(1,2)-benzenacyclodecaphane-2^4-yl)carbamate], the Ki in experiment [1] came out at 8.6 nM; in experiment [2] it was 3.65 nM.

In the case of `COC(=O)Nc1ccc2c(c1)NC(=O)CC/C=C/C[C@@H](C(=O)N1CCC[C@@]3(C1)OC(=O)Nc1ccc(Cl)c(F)c13)c1cc-2ccn1` [Example 21a, methyl ((R,E)-10-((R)-6-chloro-5-fluoro-2-oxo-1,2-dihydrospiro[benzo[d][1,3]oxazine-4,3′-piperidine]-1′-carbonyl)-4-oxo-3-aza-1(4,2)-pyridina-2(1,2)-benzenacyclodecaphanen-2^4-yl)carbamate], the Ki stood at 59.4 nM in experiment [1] and 17 nM in experiment [2].

As for `COC(=O)Nc1ccc2c(c1)NC(=O)CC/C=C\C[C@@H](C(=O)N1CCC[C@@]3(C1)OC(=O)Nc1ccc(Cl)c(F)c13)c1cc-2ccn1` [Example 22a, methyl ((R,Z)-10-((R)-6-chloro-5-fluoro-2-oxo-1,2-dihydrospiro[benzo[d][1,3]oxazine-4,3′-piperidine]-1′-carbonyl)-4-oxo-3-aza-1(4,2)-pyridina-2(1,2)-benzenacyclodecaphanen-2^4-yl)carbamate], the Ki worked out at 2.88 nM in experiment [1] and 0.77 nM in experiment [2].

Take `COC(=O)Nc1ccc2c(c1)NC(=O)CCCC[C@@H](C(=O)N1CC[C@@]3(C1)OC(=O)Nc1ccc(Cl)c(F)c13)c1ccnc-2c1` [Example 25a, methyl ((R)-9-((R)-6-chloro-5-fluoro-2-oxo-1,2-dihydrospiro[benzo[d][1,3]oxazine-4,3′-pyrrolidine]-1′-carbonyl)-4-oxo-3-aza-1(2,4)-pyridina-2(1,2)-benzenacyclononaphane-2^4-yl)carbamate]: the Ki was found to be 1.3 nM in experiment [1] and 0.75 nM in experiment [2].

Consider `COC(=O)Nc1ccc2c(c1)NC(=O)CCCCC(C(=O)N1CC[C@@]3(C1)OC(=O)Nc1ccc(Cl)cc13)c1cc(F)cc-2c1` (stereo partly drawn) [Example 28, methyl (9-((R)-6-chloro-2-oxo-1,2-dihydrospiro[benzo[d][1,3]oxazine-4,3′-pyrrolidine]-1′-carbonyl)-1^5-fluoro-4-oxo-3-aza-1(1,3),2(1,2)-dibenzenacyclononaphane-2^4-yl)carbamate], for which the Ki came out at 45.2 nM in experiment [1] and 12.7 nM in experiment [2].

On to `COC(=O)Nc1ccc2c(c1)NC(=O)CCCC[C@@H](C(=O)N1CCC[C@@]3(C1)OC(=O)Nc1ccc(Cl)c(F)c13)c1cc(F)cc-2c1` [Example 30b, methyl ((R)-9-((R)-6-chloro-5-fluoro-2-oxo-1,2-dihydrospiro[benzo[d][1,3]oxazine-4,3′-piperidine]-1′-carbonyl)-1^5-fluoro-4-oxo-3-aza-1(1,3),2(1,2)-dibenzenacyclononaphane-2^4-yl)carbamate], for which the Ki came out at 68.8 nM in experiment [1] and 1.52 nM in experiment [2].

`CCOC(=O)C1C/C=C/CC(C(=O)N2CCC[C@@]3(C2)OC(=O)Nc2ccc(Cl)c(F)c23)c2nc(c[nH]2)-c2ccc(NC(=O)OC)cc2N1` (stereo partly drawn) [Example 31, ethyl (1^2Z,6E)-9-((R)-6-chloro-5-fluoro-2-oxo-1,2-dihydrospiro[benzo[d][1,3]oxazine-4,3′-piperidine]-1′-carbonyl)-2^4-((methoxycarbonyl)amino)-1^1H-3-aza-1(4,2)-imidazola-2(1,2)-benzenacyclononaphan-6-ene-4-carboxylate]: the Ki in experiment [1] was 41.1 nM; in experiment [2], 63.7 nM.

For the molecule `COC(=O)Nc1ccc2c(c1)NC(=O)CCCC[C@H](NC(=O)N1CC[C@@]3(C1)OC(=O)Nc1ccc(Cl)cc13)c1nc-2c[nH]1` [Example 38, methyl ((S,Z)-9-((R)-6-chloro-2-oxo-1,2-dihydrospiro[benzo[d][1,3]oxazine-4,3′-pyrrolidine]-1′-carboxamido)-4-oxo-11H-3-aza-1(4,2)-imidazola-2(1,2)-benzenacyclononaphane-2^4-yl)carbamate], the Ki is 16.1 nM in experiment [1] and 4.5 nM in experiment [2].
